These results are taken from US11452717B2, “Small molecule activators of nicotinamide phosphoribosyltransferase (NAMPT) and uses thereof” (Sanford Burnham Prebys Medical Discovery Institute, priority 2017, dated 2022).

Some results are limits rather than exact numbers.

Chain of NAMPT enzyme (P43490 whole entry, species assumed): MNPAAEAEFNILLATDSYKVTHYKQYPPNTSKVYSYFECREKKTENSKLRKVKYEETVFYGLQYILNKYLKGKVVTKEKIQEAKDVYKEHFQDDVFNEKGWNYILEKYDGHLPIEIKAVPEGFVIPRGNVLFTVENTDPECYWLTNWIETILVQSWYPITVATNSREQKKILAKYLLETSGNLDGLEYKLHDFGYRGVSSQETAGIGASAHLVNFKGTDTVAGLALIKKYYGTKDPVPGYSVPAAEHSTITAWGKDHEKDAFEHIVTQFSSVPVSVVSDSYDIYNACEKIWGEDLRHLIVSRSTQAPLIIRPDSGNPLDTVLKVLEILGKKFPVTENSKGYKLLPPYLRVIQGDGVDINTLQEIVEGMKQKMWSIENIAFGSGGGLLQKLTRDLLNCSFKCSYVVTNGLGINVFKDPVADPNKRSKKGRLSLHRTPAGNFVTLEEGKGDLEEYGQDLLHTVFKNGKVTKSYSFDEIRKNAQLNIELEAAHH

One assay concerns the target NAMPT enzyme (Homo sapiens (Human), UniProt P43490). Kind of assay: Enzyme Assay and NMN Detection (NAMPT reaction, fluorescence detection of NMN). The conditions noted are these: Table B-1; NAMPT activation, NMN formation. The class given is biochemical. The essentials: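 NMN formed was read at ex380/em460 after acetophenone/KOH derivatization and formic acid addition, using a same-day calibration curve. Final conditions: NAMPT 16 nM, nicotinamide 5 uM, PRPP 6.25 uM, ATP 120 uM, pyrophosphatase 0.04 U/ml, pH 7.5 HEPES buffer with MgCl2 and TCEP, 2 h at room temperature.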
Turning to `COc1ccc(Cn2cc(CNC(=O)Nc3ccc(NS(=O)(=O)c4ccccc4)cc3)cn2)cc1` [N-(4-{3-[1-(4-Methoxy-benzyl)-1H-pyrazol-4-ylmethyl]-ureido}-phenyl)-benzenesulfonamide], the 50% effective concentration (EC50) is greater than 20 µM.
As to `O=C(NCc1cnco1)Nc1ccc(S(=O)(=O)NCc2ccccc2)cc1` [N-Benzyl-4-(3-oxazol-5-ylmethyl-ureido)-benzenesulfonamide], the EC50 fell in the range of 0.1 to 2 µM.
Same read-out and setting: the figure for `O=C(NCc1cn[nH]c1)Nc1ccc(S(=O)(=O)NCc2ccccc2)cc1` [N-Benzyl-4-[3-(1H-pyrazol-4-ylmethyl)-ureido]-benzenesulfonamide] is 0.1 to 2 µM; for `CC(C)N(Cc1ccccc1)S(=O)(=O)c1ccc(NC(=O)NCc2cnco2)cc1` [N-Benzyl-N-isopropyl-4-(3-oxazol-5-ylmethyl-ureido)-benzenesulfonamide] it is less than 0.1 µM.
For `CC(C)N(Cc1ccccc1)S(=O)(=O)c1ccc(NC(=O)NCc2nccs2)cc1` [N-Benzyl-N-isopropyl-4-(3-thiazol-2-ylmethyl-ureido)-benzenesulfonamide], the EC50 was greater than 20 µM.
Same read-out and setting: the same measure for `CC(C)N(Cc1ccccc1)S(=O)(=O)c1ccc(NC(=O)NCc2cncs2)cc1` [N-Benzyl-N-isopropyl-4-(3-thiazol-5-ylmethyl-ureido)-benzenesulfonamide]: less than 0.1 µM.
The same measure, in the same setting: the same measure for `CC(C)N(Cc1ccccc1)S(=O)(=O)c1ccc(NC(=O)NCc2cn[nH]c2)cc1` [N-Benzyl-N-isopropyl-4-[3-(1H-pyrazol-4-ylmethyl)-ureido]-benzenesulfonamide]: less than 0.1 µM.

The assay is the same for the next values; noted with them: Table B-2; NAMPT activation, NMN formation.
`Cc1ccnc(NS(=O)(=O)c2ccc(NC(=O)NCc3ccncc3)cc2)n1` [N-(4-Methyl-pyrimidin-2-yl)-4-(3-pyridin-4-ylmethyl-ureido)-benzenesulfonamide] returned an EC50 of 0.1 to 2 µM.
The molecule `O=C(NCc1ccncc1)Nc1ccc(C(=O)NCc2ccc(Cl)cc2)cc1` [N-(4-chlorobenzyl)-4-(3-(pyridin-4-ylmethyl)ureido)benzamide] displayed an EC50 greater than 20 µM.
The same measure, in the same setting: the same measure for `O=C(NCc1ccncc1)Nc1ccc(S(=O)(=O)NCc2ccc(Cl)cc2)cc1` [N-(4-chlorobenzyl)-4-(3-(pyridin-4-ylmethyl)ureido)benzenesulfonamide]: 0.1 to 2 µM.
Same read-out and setting: the same measure for `O=C(NCc1ccncc1)Nc1ccc(C(=O)Nc2ccc(Cl)cc2)cc1` [N-(4-chlorophenyl)-4-(3-(pyridin-4-ylmethyl)ureido)benzamide]: 0.1 to 2 µM; for `N#Cc1ccc(CNS(=O)(=O)c2ccc(NC(=O)NCc3ccncc3)cc2)cc1` [N-(4-cyanobenzyl)-4-(3-(pyridin-4-ylmethyl)ureido)benzenesulfonamide]: 0.1 to 2 µM.
`N#Cc1ccc(NC(=O)c2ccc(NC(=O)NCc3ccncc3)cc2)cc1` [N-(4-cyanophenyl)-4-(3-(pyridin-4-ylmethyl)ureido)benzamide] returned an EC50 of 0.1 to 2 µM.
On the same count and under the same terms, the same measure for `CCOc1ccc(NC(=O)c2ccc(NC(=O)NCc3ccncc3)cc2)cc1` [N-(4-ethoxyphenyl)-4-(3-(pyridin-4-ylmethyl)ureido)benzamide]: 0.1 to 2 µM; for `O=C(NCc1ccncc1)Nc1ccc(C(=O)NCc2ccc(F)cc2)cc1` [N-(4-fluorobenzyl)-4-(3-(pyridin-4-ylmethyl)ureido)benzamide]: greater than 20 µM; for `O=C(NCc1ccncc1)Nc1ccc(S(=O)(=O)NCc2ccc(F)cc2)cc1` [N-(4-fluorobenzyl)-4-(3-(pyridin-4-ylmethyl)ureido)benzenesulfonamide]: 0.1 to 2 µM.
The same measure, in the same setting: the same measure for `O=C(NCc1ccncc1)Nc1ccc(C(=O)NCCc2ccc(F)cc2)cc1` [N-(4-fluorophenethyl)-4-(3-(pyridin-4-ylmethyl)ureido)benzamide]: 0.1 to 2 µM.
Same read-out and setting: the same measure for `O=C(NCc1ccncc1)Nc1ccc(C(=O)Nc2ccc(F)cc2)cc1` [N-(4-fluorophenyl)-4-(3-(pyridin-4-ylmethyl)ureido)benzamide]: 0.1 to 2 µM; for `CC(C)Oc1ccc(NC(=O)c2ccc(NC(=O)NCc3ccncc3)cc2)cc1` [N-(4-isopropoxyphenyl)-4-(3-(pyridin-4-ylmethyl)ureido)benzamide]: 0.1 to 2 µM.
Regarding `COc1ccc(NC(=O)c2ccc(NC(=O)NCc3ccncc3)cc2)cc1C` [N-(4-methoxy-3-methylphenyl)-4-(3-(pyridin-4-ylmethyl)ureido)benzamide], the half-maximal effective concentration (EC50) is 0.1 to 2 µM.
Still for that read-out and setting: the same measure for `COc1ccc(CNC(=O)c2ccc(NC(=O)NCc3ccncc3)cc2)cc1` [N-(4-methoxybenzyl)-4-(3-(pyridin-4-ylmethyl)ureido)benzamide]: greater than 20 µM; for `COc1ccc(CNS(=O)(=O)c2ccc(NC(=O)NCc3ccncc3)cc2)cc1` [N-(4-methoxybenzyl)-4-(3-(pyridin-4-ylmethyl)ureido)benzenesulfonamide]: 0.1 to 2 µM.
Molecule `COc1ccc(NC(=O)c2ccc(NC(=O)NCc3ccncc3)cc2)cc1` [N-(4-methoxyphenyl)-4-(3-(pyridin-4-ylmethyl)ureido)benzamide] came in with a concentration giving a half-maximal response (EC50) of 0.1 to 2 µM.
Same read-out and setting: the figure for `Cc1ccc(CNC(=O)c2ccc(NC(=O)NCc3ccncc3)cc2)cc1` [N-(4-methylbenzyl)-4-(3-(pyridin-4-ylmethyl)ureido)benzamide] is greater than 20 µM; for `Cc1ccc(CNS(=O)(=O)c2ccc(NC(=O)NCc3ccncc3)cc2)cc1` [N-(4-methylbenzyl)-4-(3-(pyridin-4-ylmethyl)ureido)benzenesulfonamide] it is 0.1 to 2 µM.
Molecule `Cc1ccc(CCNC(=O)c2ccc(NC(=O)NCc3ccncc3)cc2)cc1` [N-(4-methylphenethyl)-4-(3-(pyridin-4-ylmethyl)ureido)benzamide] yielded an EC50 of 0.1 to 2 µM.
Same read-out and setting: the same measure for `Cc1cc(NS(=O)(=O)c2ccc(NC(=O)NCc3ccncc3)cc2)no1` [N-(5-Methyl-isoxazol-3-yl)-4-(3-pyridin-4-ylmethyl-ureido)-benzenesulfonamide]: greater than 20 µM; for `O=C(NCc1ccncc1)Nc1ccc(C(=O)Nc2ccc3c(c2)OCO3)cc1` [N-(benzo[d][1,3]dioxol-5-yl)-4-(3-(pyridin-4-ylmethyl)ureido)benzamide]: 5 to 20 µM; for `O=C(NCc1ccncc1)Nc1cccc(S(=O)(=O)NCC2CCC2)c1` [N-(cyclobutylmethyl)-3-(3-(pyridin-4-ylmethyl)ureido)benzenesulfonamide]: greater than 20 µM.
Still for that read-out and setting: the figure for `O=C(NCc1ccncc1)Nc1ccc(C(=O)NCC2CCCC2)cc1` [N-(cyclopentylmethyl)-4-(3-(pyridin-4-ylmethyl)ureido)benzamide] is 5 to 20 µM; for `O=C(NCc1ccncc1)Nc1ccc(C(=O)NCC2CC2)cc1` [N-(cyclopropylmethyl)-4-(3-(pyridin-4-ylmethyl)ureido)benzamide] it is 2 to 5 µM; for `O=C(NCc1ccncc1)Nc1ccc(C(=O)Nc2ccccn2)cc1` [N-(pyridin-2-yl)-4-(3-(pyridin-4-ylmethyl)ureido)benzamide] it is 5 to 20 µM.
As for `O=C(NCc1ccncc1)Nc1ccc(C(=O)Nc2cccnc2)cc1` [N-(pyridin-3-yl)-4-(3-(pyridin-4-ylmethyl)ureido)benzamide], the EC50 was greater than 20 µM.
With `O=C(NCc1ccncc1)Nc1ccc(C(=O)NCc2ccncc2)cc1` [N-(pyridin-4-ylmethyl)-4-(3-(pyridin-4-ylmethyl)ureido)benzamide], the EC50 is greater than 20 µM.
Molecule `CC(C)(C)NS(=O)(=O)c1ccc(NC(=O)NCc2ccncc2)cc1` [N-(tert-butyl)-4-(3-(pyridin-4-ylmethyl)ureido)benzenesulfonamide] displayed an EC50 of 0.1 to 2 µM.
Same read-out and setting: the same measure for `O=C(NCc1ccncc1)Nc1ccc(S(=O)(=O)N(Cc2ccccc2)CC(F)(F)F)cc1` [N-Benzyl-4-(3-pyridin-4-ylmethyl-ureido)-N-(2,2,2-trifluoro-ethyl)-benzenesulfonamide]: less than 0.1 µM.
For `O=C(NCc1ccncc1)Nc1ccc(S(=O)(=O)NCc2ccccc2)cc1` [N-Benzyl-4-(3-pyridin-4-ylmethyl-ureido)-benzenesulfonamide], the EC50 was in the range of 0.1 to 2 µM.
In turn, `O=C(NCc1ccncc1)Nc1ccc(S(=O)(=O)N(Cc2ccccc2)C2CC2)cc1` [N-Benzyl-N-cyclopropyl-4-(3-pyridin-4-ylmethyl-ureido)-benzenesulfonamide] gave an EC50 of less than 0.1 µM.
`CCN(Cc1ccccc1)S(=O)(=O)c1ccc(NC(=O)NCc2ccncc2)cc1` [N-Benzyl-N-ethyl-4-(3-pyridin-4-ylmethyl-ureido)-benzenesulfonamide] came in with an EC50 of less than 0.1 µM.
Still for that read-out and setting: the same measure for `CC(C)N(Cc1ccccc1)S(=O)(=O)c1ccc(NC(=O)NCc2ccncc2)cc1` [N-Benzyl-N-isopropyl-4-(3-pyridin-4-ylmethyl-ureido)-benzenesulfonamide]: less than 0.1 µM.
Same read-out and setting: the figure for `O=C(NCc1ccncc1)Nc1ccc(S(=O)(=O)N(Cc2ccccc2)c2ccccc2)cc1` [N-Benzyl-N-phenyl-4-(3-pyridin-4-ylmethyl-ureido)-benzenesulfonamide] is 0.1 to 2 µM; for `CCCN(Cc1ccccc1)S(=O)(=O)c1ccc(NC(=O)NCc2ccncc2)cc1` [N-Benzyl-N-propyl-4-(3-pyridin-4-ylmethyl-ureido)-benzenesulfonamide] it is less than 0.1 µM; for `O=C(NCc1ccncc1)Nc1ccc(S(=O)(=O)NC2CCC2)cc1` [N-Cyclobutyl-4-(3-pyridin-4-ylmethyl-ureido)-benzenesulfonamide] it is 0.1 to 2 µM.
`O=C(NCc1ccncc1)Nc1ccc(S(=O)(=O)NCC2CCC2)cc1` [N-Cyclobutylmethyl-4-(3-pyridin-4-ylmethyl-ureido)-benzenesulfonamide] showed an EC50 of 0.1 to 2 µM.

The same assay, now with this note: Table B-3; NAMPT activation, NMN formation.
As for `O=C(NCc1ccccc1)Nc1ccc(S(=O)(=O)NCc2ccccc2)cc1` [N-Benzyl-4-(3-benzyl-ureido)-benzenesulfonamide], the concentration giving a half-maximal response (EC50) was greater than 20 µM.

Staying with this assay, now noted: Table B-4; NAMPT activation, NMN formation.
The molecule `Cc1ccc(CNS(=O)(=O)c2ccc(NC(=O)NCc3cn[nH]c3)cc2)cc1` [N-(4-Methyl-benzyl)-4-[3-(1H-pyrazol-4-ylmethyl)-ureido]-benzenesulfonamide] returned an EC50 of 0.1 to 2 µM.

The EC50 is the midpoint of the concentration-response curve. Read a low EC50 as an effect from little substance.
